# Several values for one entry are separate records, joined by “and”; a condition that tells them apart may be missing. Identical values can stand only once. Activity calls are given as the source filed them. How the calls were made is not given here.
# Test system: rodent lifetime carcinogenesis bioassay, tumor incidence TD50
# Test: carcinogenic potency in animals, long-term in vivo studies, CPDB compilation (AID 1745844)
# [1] = rat, strain Sprague-Dawley, females, by gavage, site: liver, lesion: hepatocellular carcinoma, dosed 52 weeks, study length 65 weeks
smiles,measurement,setting,value
CC/C(=C(\c1ccccc1)c1ccc(OCCN(C)C)cc1)c1ccccc1,TD50,"mouse, strain AP Alderly Park, females, several routes, site: ovary, lesion: granulosa-cell adenoma, dosed 65 weeks, study length 65 weeks",3 mg/kg/day
same,TD50,"mouse, strain AP Alderly Park, males, several routes, site: testis, lesion: interstitial-cell adenoma, dosed 65 weeks, study length 65 weeks",8.18 mg/kg/day
same,TD50,"mouse, strain AP Alderly Park, males, several routes, site: testis, lesion: interstitial-cell tumor, dosed 56 weeks, study length 56 weeks",9.8 mg/kg/day
same,TD50,"mouse, strain B6C3F1, females, in feed, site: liver, lesion: hepatocellular adenoma, dosed 104 weeks, study length 104 weeks",101 mg/kg/day (inactive)
same,carcinogen call,"mouse, strain B6C3F1, females, in feed, site: lung, lesion: alveolar-cell carcinoma, dosed 104 weeks, study length 104 weeks",negative (inactive)
same,carcinogen call,"mouse, strain B6C3F1, females, in feed, site: uterus, lesion: leiomyoma, dosed 104 weeks, study length 104 weeks",negative (inactive)
same,carcinogen call,"mouse, strain C57BL/6, females, in feed, site: liver, lesion: hepatocellular carcinoma, dosed 52 weeks, study length 52 weeks",negative (inactive)
same,carcinogen call,"mouse, strain DBA/2, females, in feed, site: liver, lesion: hepatocellular carcinoma, dosed 52 weeks, study length 52 weeks",negative (inactive)
same,TD50,"rat, strain Alpk:APfSD, females, by gavage, site: liver, lesion: biliary cystadenoma, dosed 88 weeks, study length 107 weeks",706 mg/kg/day
same,TD50,"rat, strain Alpk:APfSD, females, by gavage, site: liver, lesion: cholangioma, dosed 88 weeks, study length 107 weeks",2260 mg/kg/day
same,TD50,"rat, strain Alpk:APfSD, females, by gavage, site: liver, lesion: hepatocellular adenoma, dosed 88 weeks, study length 107 weeks",135 mg/kg/day
same,TD50,"rat, strain Alpk:APfSD, females, by gavage, site: liver, lesion: hepatocellular carcinoma, dosed 88 weeks, study length 107 weeks",17 mg/kg/day
same,TD50,"rat, strain Alpk:APfSD, females, by gavage, site: liver, lesion: hepatocholangiocarcinoma, dosed 88 weeks, study length 107 weeks",241 mg/kg/day
same,TD50,"rat, strain Alpk:APfSD, males, by gavage, site: liver, lesion: biliary cystadenoma, dosed 88 weeks, study length 107 weeks",1100 mg/kg/day
same,TD50,"rat, strain Alpk:APfSD, males, by gavage, site: liver, lesion: hepatocellular adenoma, dosed 88 weeks, study length 107 weeks",47.9 mg/kg/day
same,TD50,"rat, strain Alpk:APfSD, males, by gavage, site: liver, lesion: hepatocellular carcinoma, dosed 88 weeks, study length 107 weeks",18.7 mg/kg/day
same,TD50,"rat, strain Alpk:APfSD, males, by gavage, site: liver, lesion: hepatocholangiocarcinoma, dosed 88 weeks, study length 107 weeks",306 mg/kg/day
same,TD50,"rat, strain Charles River CD (Sprague-Dawley), females, by gavage, site: liver, lesion: hepatocellular adenoma, dosed 51 weeks, study length 65 weeks",7.77 mg/kg/day
same,TD50,"rat, strain Charles River CD (Sprague-Dawley), females, by gavage, site: liver, lesion: hepatocellular adenoma, dosed 52 weeks, study length 65 weeks",4.35 mg/kg/day
same,TD50,"rat, strain Charles River CD (Sprague-Dawley), females, by gavage, site: liver, lesion: hepatocellular carcinoma, dosed 51 weeks, study length 65 weeks",7.77 mg/kg/day
same,TD50,"rat, strain Charles River CD (Sprague-Dawley), females, by gavage, site: liver, lesion: hepatocellular carcinoma, dosed 52 weeks, study length 52 weeks",2.12 mg/kg/day and 10.3 mg/kg/day
same,TD50,"rat, strain Charles River CD (Sprague-Dawley), females, by gavage, site: liver, lesion: hepatocellular carcinoma, dosed 52 weeks, study length 65 weeks",4.62 mg/kg/day
same,TD50,"rat, strain Charles River CD (Sprague-Dawley), females, by gavage, site: liver, lesion: several types, types named in the paper, dosed 52 weeks, study length 52 weeks",1.44 mg/kg/day
same,TD50,"rat, strain Charles River CD (Sprague-Dawley), females, by gavage, site: liver, lesion: several types, types named in the paper, dosed 52 weeks, study length 65 weeks",3.86 mg/kg/day
same,TD50,"rat, strain Fischer 344/Tox, females, in feed, site: liver, lesion: hepatocellular carcinoma, dosed 86 weeks, study length 86 weeks",4.18 mg/kg/day
same,TD50,"rat, strain Lewis, females, in feed, site: liver, lesion: hepatocellular carcinoma, dosed 48 weeks, study length 48 weeks",1.38 mg/kg/day
same,TD50,"rat, strain Sprague-Dawley, females, by gavage, site: any site (literature study), lesion: malignant tumor, dosed 167 weeks, study length 167 weeks",88.7 mg/kg/day
same,TD50,"rat, strain Sprague-Dawley, females, by gavage, site: liver, lesion: hepatocellular adenoma, dosed 167 weeks, study length 167 weeks",497 mg/kg/day
same,TD50,"rat, strain Sprague-Dawley, females, by gavage, site: liver, lesion: hepatocellular carcinoma, dosed 52 weeks, study length 52 weeks",11.8 mg/kg/day and 7.56 mg/kg/day and 4.79 mg/kg/day
same,TD50,[1],18.9 mg/kg/day and 6 mg/kg/day
same,carcinogen call,[1],positive
same,TD50,"rat, strain Sprague-Dawley, females, by gavage, site: liver, lesion: hepatocellular carcinoma, dosed 167 weeks, study length 167 weeks",164 mg/kg/day
same,carcinogen call,"rat, strain Sprague-Dawley, females, by gavage, site: liver, lesion: several types, types named in the paper, dosed 52 weeks, study length 52 weeks",positive
same,TD50,"rat, strain Sprague-Dawley, females, by gavage, site: uterus, lesion: fibroma, dosed 167 weeks, study length 167 weeks",247 mg/kg/day
same,TD50,"rat, strain Sprague-Dawley, females, by gavage, site: uterus, lesion: sarcoma, dosed 167 weeks, study length 167 weeks",487 mg/kg/day
same,TD50,"rat, strain Sprague-Dawley, females, by gavage, site: uterus, lesion: squamous-cell carcinoma, dosed 167 weeks, study length 167 weeks",497 mg/kg/day
same,TD50,"rat, strain Sprague-Dawley, females, by gavage, site: vagina, lesion: squamous-cell carcinoma, dosed 167 weeks, study length 167 weeks",497 mg/kg/day
same,TD50,"rat, strain Sprague-Dawley, males, by gavage, site: any site (literature study), lesion: malignant tumor, dosed 167 weeks, study length 167 weeks",187 mg/kg/day
same,TD50,"rat, strain Sprague-Dawley, males, by gavage, site: liver, lesion: hepatocellular adenoma, dosed 167 weeks, study length 167 weeks",497 mg/kg/day
same,TD50,"rat, strain Sprague-Dawley, males, by gavage, site: liver, lesion: hepatocellular carcinoma, dosed 167 weeks, study length 167 weeks",247 mg/kg/day
same,TD50,"rat, strain Sprague-Dawley, males, by gavage, site: mammary tissue, wider than the gland, lesion: adenocarcinoma, dosed 167 weeks, study length 167 weeks",247 mg/kg/day
same,TD50,"rat, strain Sprague-Dawley, males, by gavage, site: mammary tissue, wider than the gland, lesion: benign tumor, dosed 167 weeks, study length 167 weeks",96.4 mg/kg/day
same,TD50,"rat, strain Wistar/LAC-P, females, in feed, site: liver, lesion: hepatocellular carcinoma, dosed 49 weeks, study length 49 weeks",1.36 mg/kg/day
C=C(C)C(=O)Nc1ccc(Cl)c(Cl)c1,carcinogen call,"mouse, strain B6AKF1, females, oral dosing, site: any site (literature study), lesion: several types, types named in the paper, dosed 76 weeks, study length 76 weeks",negative (inactive)
same,carcinogen call,"mouse, strain B6AKF1, females, oral dosing, site: liver, lesion: hepatoma, dosed 76 weeks, study length 76 weeks",negative (inactive)
same,carcinogen call,"mouse, strain B6AKF1, females, oral dosing, site: lung, lesion: adenoma, dosed 76 weeks, study length 76 weeks",negative (inactive)
same,TD50,"mouse, strain B6AKF1, males, oral dosing, site: any site (literature study), lesion: several types, types named in the paper, dosed 76 weeks, study length 76 weeks",49.1 mg/kg/day (inactive)
same,TD50,"mouse, strain B6AKF1, males, oral dosing, site: liver, lesion: hepatoma, dosed 76 weeks, study length 76 weeks",27.1 mg/kg/day (inactive)
same,carcinogen call,"mouse, strain B6AKF1, males, oral dosing, site: lung, lesion: adenoma, dosed 76 weeks, study length 76 weeks",negative (inactive)
same,carcinogen call,"mouse, strain B6C3F1, females, oral dosing, site: any site (literature study), lesion: one or several types, types not named, dosed 76 weeks, study length 76 weeks",negative (inactive)
same,carcinogen call,"mouse, strain B6C3F1, females, oral dosing, site: liver, lesion: hepatoma, dosed 76 weeks, study length 76 weeks",negative (inactive)
same,carcinogen call,"mouse, strain B6C3F1, females, oral dosing, site: lung, lesion: several types, types named in the paper, dosed 76 weeks, study length 76 weeks",negative (inactive)
same,TD50,"mouse, strain B6C3F1, males, oral dosing, site: any site (literature study), lesion: several types, types named in the paper, dosed 76 weeks, study length 76 weeks",5.39 mg/kg/day (inactive)
same,TD50,"mouse, strain B6C3F1, males, oral dosing, site: liver, lesion: hepatoma, dosed 76 weeks, study length 76 weeks",15.2 mg/kg/day (inactive)
same,TD50,"mouse, strain B6C3F1, males, oral dosing, site: lung, lesion: adenoma, dosed 76 weeks, study length 76 weeks",23.7 mg/kg/day (inactive)
Cl[C@@H]1OCCO[C@H]1Cl,TD50,"mouse, strain Ha/ICR, females, i.p., site: lung, lesion: papillary tumor, dosed 64 weeks, study length 64 weeks",7.04 mg/kg/day
C=CCCl,TD50,"mouse, strain B6C3F1, females, by gavage, site: any site (literature study), lesion: several types, types named in the paper, dosed 78 weeks, study length 91 weeks",343 mg/kg/day
same,TD50,"mouse, strain B6C3F1, females, by gavage, site: liver, lesion: hepatocellular adenoma + hepatocellular carcinoma + neoplastic nodule, dosed 78 weeks, study length 91 weeks",2180 mg/kg/day
same,TD50,"mouse, strain B6C3F1, females, by gavage, site: lung, lesion: alveolar/bronchiolar adenoma + alveolar/bronchiolar carcinoma, dosed 78 weeks, study length 91 weeks",1250 mg/kg/day
same,TD50,"mouse, strain B6C3F1, females, by gavage, site: stomach, lesion: squamous-cell carcinoma + squamous-cell papilloma, dosed 78 weeks, study length 91 weeks",706 mg/kg/day
same,TD50,"mouse, strain B6C3F1, males, by gavage, site: any site (literature study), lesion: several types, types named in the paper, dosed 67 weeks, study length 91 weeks",184 mg/kg/day
same,TD50,"mouse, strain B6C3F1, males, by gavage, site: liver, lesion: hepatocellular adenoma + hepatocellular carcinoma + neoplastic nodule, dosed 67 weeks, study length 91 weeks",457 mg/kg/day
same,TD50,"mouse, strain B6C3F1, males, by gavage, site: stomach, lesion: squamous-cell carcinoma + squamous-cell papilloma, dosed 67 weeks, study length 91 weeks",727 mg/kg/day
same,TD50,"rat, strain Osborne-Mendel, females, by gavage, site: any site (literature study), lesion: several types, types named in the paper, dosed 78 weeks, study length 110 weeks",35.2 mg/kg/day
same,TD50,"rat, strain Osborne-Mendel, males, by gavage, site: any site (literature study), lesion: several types, types named in the paper, dosed 78 weeks, study length 110 weeks",28.1 mg/kg/day
O=S(=O)([O-])[O-].[Ni+2],carcinogen call,"mouse, strain B6C3F1, females, inhaled, site: any site (literature study), lesion: several types, types named in the paper, dosed 104 weeks, study length 104 weeks",negative (inactive)
same,TD50,"mouse, strain B6C3F1, females, inhaled, site: lung, lesion: alveolar/bronchiolar adenoma + alveolar/bronchiolar carcinoma, dosed 104 weeks, study length 104 weeks",3.1 mg/kg/day
same,carcinogen call,"mouse, strain B6C3F1, males, inhaled, site: any site (literature study), lesion: several types, types named in the paper, dosed 104 weeks, study length 105 weeks",negative (inactive)
same,carcinogen call,"rat, strain Fischer 344, females, inhaled, site: any site (literature study), lesion: several types, types named in the paper, dosed 104 weeks, study length 104 weeks",negative (inactive)
same,carcinogen call,"rat, strain Fischer 344, males, inhaled, site: any site (literature study), lesion: several types, types named in the paper, dosed 104 weeks, study length 105 weeks",negative (inactive)
same,TD50,"rat, strain Fischer 344, males, inhaled, site: liver, lesion: hepatocellular adenoma + hepatoblastoma + hepatocellular carcinoma, dosed 104 weeks, study length 105 weeks",2.08 mg/kg/day

# Reference: PubChem BioAssay AID1745844 (Carcinogenic Potency Database (CPDB), 2022)
